Measurements taken from patent US10106684B2, “Method for making Schiff base” (KING FAHD UNIVERSITY OF PETROLEUM AND MINERALS, priority 2016, dated 2018).

Test: Fluorescence titration of compound 1 with Cu^2+ (Stern-Volmer plot, detection limit)
Format: binding
Protocol: All of the absorption and emission studies were carried out in mixed aqueous solutions of water and methanol (4:1) containing HEPES buffer (10 mM, pH 7.4) at a concentration of 20 μM and 0.2 μM respectively. Emission studies were carried out by addition of 10 equiv of various biologically and non-biologically relevant metal cations to an aqueous-MeOH (4:1) solution of compound 1 at a concentration level of 0.2 μM and their complexation abilities were studies by fluorescence. […] Importantly, none of the other cations induced any such distinct emission shift or quenching (FIG. 7). […] Fluorescence titration of compound 1 with Cu^2+ was carried out in aqueous MeOH (4:1) solution at a concentration level of 0.2 μM. The addition of Cu^2+ to the solution of compound 1 caused a complete quenching of the fluorescent emission and the peak at 525 nm (Φ=0.32) is “switched off” when excited at 502 nm (FIG. 9). […]
Thus, it can be assumed that the quenching of the fluorescence of compound 1 by Cu^2+ ion is a static quenching mode due to the formation of a non-fluorescent complex in the ground state. […] From the Stern-Volmer linear plot (FIG. 14) the binding constant of compound 1 with Cu^2+ was calculated to be 1.0×10^7 L·mol^−1 (error limits≤10%).

SMILES: Cn1ccnc1/C=N/N1C(=O)c2ccccc2C12c1ccc(O)cc1Oc1cc(O)ccc12 [compound 1, Fluorescein-N-methylimidazole conjugate]
- effect of Cu^2+ on fluorescence emission at 525 nm (0.2 μM compound, excitation 502 nm): completely quenched
- binding constant with Cu^2+ from Stern-Volmer linear plot (H2O:MeOH (4:1), HEPES 10 mM, pH 7.4, λex=502 nm, error limits≤10%): 1e+07 L/mol
